According to patent US20220220206A1, “TREATING CHRONIC LIVER DISEASE” (Mayo Foundation for Medical Education and Research, priority 2019, published 2022):

Assays:
[1] = system: VCAM-1 expression in TSEC; assay: Palmitate-induced VCAM-1 expression in TSEC; assay type: cell-based, mouse; conditions: 500 μM PA, 16 hours
Description: Transformed mouse liver sinusoidal endothelial cells (TSEC) were obtained. Primary human liver sinusoidal endothelial cells (LSEC) were purchased from ScienCell Research Laboratories (San Diego, Calif.). To yield primary mouse LSECs, cell suspensions obtained with liver collagenase perfusion were centrifuged at 50 g for 2 minutes to remove hepatocytes. The supernatant which includes non-parenchymal cells was subjected to LSEC isolation using CD146 MicroBeads (Miltenyi Biotec, Bergisch Gladbach, Germany) following the manufacture's instruction. […]
Cells were lysed using RIPA buffer (50 mM Tris-HCl, pH 7.4; 1% Nonidet P-40; 0.25% sodium deoxycholate; 150 mM NaCl; 1 mM EDTA with protease inhibitors) followed by centrifugation at 15,000 g for 15 minutes at 4° C. Protein concentrations of the lysates were measured by the Bradford assay method (Sigma-Aldrich). […] Proteins were detected using enhanced chemiluminescence reagents (GE Healthcare, Chicago, Ill.). β-actin and GAPDH protein levels were used as loading controls.
Total RNA was isolated with the RNeasy Mini Kit (Qiagen, Valencia, Calif.) and was reverse transcribed with moloney murine leukemia virus reverse transcriptase and oligo-dT random primers (both from Invitrogen, CA, USA). Quantification of gene expression was performed by real-time PCR using SYBR green fluorescence on a LightCycler 480 instrument (Roche Applied, IN, USA). […]

[2] = system: FFC diet-fed C57BL/6J mice (diet-induced NASH); assay: FFC diet-induced NASH mouse model, VCAM-1 blockade (antibody or AGI-1067); assay type: in vivo; conditions: AGI-1067 25 mg/kg i.p. daily for 15 days, vs vehicle
Source text: C57BL/6J male mice were purchased from Jackson Laboratory (Bar Harbor, Me.). Mice were housed and bred in a temperature-controlled 12:12-hour light-dark cycle facility with free access to diet. The mice were fed either a chow diet (5053 PicoLab Rodent Diet 20, LabDiet, St Louis, Mo.) or a diet rich in fat, fructose, and cholesterol (FFC) at 8-weeks old for 24 weeks. FFC diet consists of 40% energy as fat (12% saturated fatty acid, 0.2% cholesterol) (AIN-76A Western Diet, TestDiet, St Louis, Mo.), with fructose (23.1 g/L) and glucose (18.9 g/L) in the drinking water. The FFC diet induces steatohepatitis with pronounced hepatocellular ballooning, lipoapoptosis, and progressive fibrosis with a high fidelity to the human NASH histology and metabolic profile. At 20 weeks on the diet, the mice were randomized to receive either anti-VCAM-1 neutralizing antibody (M/K-2.7), (Genetex, GTX14360) or IgG isotype antibody (BE0088, InVivoMAb). Mice were injected with 10 mg/kg body weight of either of the antibodies intraperitoneally, twice per week for 4 weeks. Another cohort of Chow or FFC diet-fed mice was randomized to receive either vehicle or VCAM-1 inhibitor succinobucol (AGI-1067). Mice were injected with either vehicle or 25 mg/kg body weight of AGI-1067 intraperitoneally, daily for 15 days. Total caloric intake at the 3rd week of VCAM-1 antibody treatment and the first week of AGI-1067 treatment was calculated based on the weight of food and drinking water consumption. At the third week of anti-VCAM-1 neutralizing antibody treatment, metabolic parameters, including oxygen consumption, carbon dioxide production, and locomotor activity, were measured using a Comprehensive Lab Animal Monitoring System (CLAMS, Columbus Instruments, OH). Anti-VCAM-1 antibody from Bio Xcell (West Lebanon, N.H.), (BE0027) was used for the CLAMS study. Blood glucose levels and plasma insulin levels were measured using Assure 4 (Arkray, Edina, Minn.) and Ultra-Sensitive Mouse Insulin enzyme-linked immunosorbent assay (ELISA) kit (Crystal Chem Inc., Downers Grove, Ill.), respectively. Homeostasis model assessment of insulin resistance (HOMA-IR) was calculated by using the following formula: HOMA-IR=26×fasting insulin level (ng/mL)×fasting glucose level (mg/dL)/405. Mice were sacrificed under general anesthesia induced by a ketamine/xylazine cocktail (83 mg/kg ketamine, 16 mg/kg xylazine, intraperitoneal injection). All interventions were made during the light cycle. Blood and liver samples were collected for further study.
Liver triglyceride levels were measured in mouse liver homogenates. Fifty milligrams of liver tissue was homogenized in a 5% NP-40 solution. EnzyChrom Triglyceride Kit (BioAssay System, CA) was used for the assay according to the manufacturer's instruction. Photometric absorbance was read at 570 nm using a Synergy H1 microplate reader (BioTek). Serum alanine aminotransferase (ALT) levels were measured by VetScan2 (Abaxis Veterinary Diagnostics, Union City, Calif.).
Liver histology was performed using tissue fixed in 10% formalin, dehydrated, and embedded in paraffin. Hematoxylin and eosin (H&E) staining and Sirius red staining were performed. Severity of NASH was assessed using nonalcoholic fatty liver disease (NAFLD) activity score (NAS), a semi-quantitative score that accounts for steatosis, ballooned hepatocytes, and lobular inflammation. Terminal deoxynucleotidyl transferase deoxyuridine triphosphate nick-end labeling (TUNEL) assay was performed using the ApopTag Peroxidase In Situ Apoptosis Detection Kit (Millipore Sigma, St. Louis, Mo.); diaminobenzidine (DAB) was used as a peroxidase substrate (Vector Laboratories, Burlingame, Calif.); 0.5% methyl green was used for the counterstain. […]

[3] = system: active ITGβ1 in Huh7 cells; assay: LPC-induced ITGβ1 activation in Huh7 cells (immunoprecipitation/immunoblot, immunofluorescence); assay type: cell-based, human; conditions: 10 μM SB203580
Description: Whole cell lysates (WCL) were obtained using immuno-precipitate (IP) buffer (50 mM Tris-HCl, pH 7.4; 1% Nonidet P-40; 150 mM NaCl) with protease inhibitor and phosphatase inhibitor followed by centrifugation at 15,000 g for 15 minutes at 4° C. Protein concentrations of the lysates were measured by the Bradford assay method (Sigma-Aldrich). In pull-down experiments, aliquots containing 1 mg of protein were incubated with either anti-ITGβ1 (MAB13), anti-ITGβ1 (9EG7) antibody or isotype IgG control antibody for 1 hour at 4° C., then incubated overnight with protein G sepharose beads (GE Healthcare) under rotary agitation. Pelleted proteins were washed with IP buffer for seven times, solubilized in SDS sample buffer, boiled for 10 minutes, and then subjected to SDS-PAGE and immunoblot analysis.
Huh7 cells were seeded on fibronectin-coated coverslips and fixed with 4% paraformaldehyde following LPC treatment. After permeabilization using 0.2% TritonX-100, the cells were blocked using blocking buffer (5% bovine serum albumin, 0.1% glycine in PBS) for one hour at room temperature, and then incubated with the primary antibody of interest overnight at 4° C. […] Pearson's correlation coefficient of co-localization was employed to quantify the degree of colocalization between fluorophores. Ten to 20 random fields in each group were selected for quantification and statistical analysis.

| Compound | PA-induced VCAM-1 protein level (Western blot) [1] | PA-induced VCAM-1 mRNA expression ([1]; real-time qPCR) | MoMF-related hepatic inflammation by Galectin-3 staining of liver sections [2] | NAS score [2] | hepatic mRNA expression of Acta2 (α-SMA) [2] | hepatic mRNA expression of Ccr2 [2] | hepatic mRNA expression of Cd68 [2] | hepatic mRNA expression of Col1α1 [2] | hepatic mRNA expression of Tnfα [2] | hepatic steatosis [2] | liver injury as number of TUNEL positive hepatocyte [2] | liver triglyceride content [2] | plasma ALT levels [2] | stellate cell activation and liver fibrogenesis by Sirius red staining [2] | stellate cell activation and liver fibrogenesis by immunohistochemistry for α-SMA [2] | LPC-induced activation of ITGβ1 (immunofluorescence microscopy) ([3]; 5 μM LPC 20 minutes) | LPC-induced increase in active ITGβ1 (9EG7 immunoprecipitation, immunoblot) ([3]; 20 μM LPC 15-30 min) |
| --- | --- | --- | --- | --- | --- | --- | --- | --- | --- | --- | --- | --- | --- | --- | --- | --- | --- |
| CC(C)(Sc1cc(C(C)(C)C)c(O)c(C(C)(C)C)c1)Sc1cc(C(C)(C)C)c(OC(=O)CCC(=O)O)c(C(C)(C)C)c1 [AGI-1067, succinobucol] | inhibits | inhibits | reduced | reduced | attenuated | reduced | reduced | attenuated | reduced | did not alter | reduced | did not alter | did not reach the statistical significance | attenuated | attenuated |  |  |
| C[S+]([O-])c1ccc(-c2nc(-c3ccncc3)c(-c3ccc(F)cc3)[nH]2)cc1 (centres unmarked) [SB203580] |  |  |  |  |  |  |  |  |  |  |  |  |  |  |  | diminished | reduced |
